Test results taken from US20060069132A1, “Azolecarboxamide herbicides” (priority 2004, published 2006).

Assays:
barnyardgrass = assay: Test E pre-/postemergence herbicide test; format: in vivo, Echinochloa crus-galli
From the text: (§1) Seeds of plant species selected from bipinnate beggarticks (Bidens bipinnata L.), hairy beggarticks (Bidens radiata Thuill.), bermudagrass (Cynodon dactylon (L.) Pers.), Surinam grass (Urochloa decumbens (Staph) R. D. Webster, previously named Brachiaria decumbens Stapf), large crabgrass (Digitaria sanguinalis (L.) Scop.), green foxtail (Setaria viridis (L.) P. Beauv.), goosegrass (Eleusine indica (L.) Gaertn.), johnsongrass (Sorghum halepense (L.) Pers.), kochia (Kochia scoparia (L.) Schrad.), pitted morningglory (Ipomoea lacunosa L.), purple nutsedge (Cyperus rotundus L.), common ragweed (Ambrosia elatior L.), mustard (Brassica nigra (L.) W. D. J. Koch), guineagrass (Panicum maximum Jacq.), dallisgrass (Paspalum dilatatum Poir.), barnyardgrass (Echinochloa crus-galli (L). P. Beauv.), southern sandbur (Cenchrus echinatus L.), common sowthistle (Sonchus oleraceous L.), prickly sida (Sida spinosa L.), Italian ryegrass (Lolium multiflorum Lam.), common purslane (Portulaca oleracea L.), broadleaf signalgrass (Brachiaria platyphylla (Griseb.) Nash), common groundsel (Senecio vulgaris L.), common chickweed (Stellaria media (L.) Vill/Cyr.), tropical spiderwort (Commelina benghalensis L.), annual bluegrass (Poa annua L.), downy bromegrass (Bromus tectorum L.), itchgrass (Rottboellia cochinchinensis (L.) L.f.), quackgrass (Elytrigia repens (L.) Nevski), Canada horseweed (Erigeron Canadensis L.), field bindweed (Convolvulus arvensis L.), spotted spurge (Euphorbia maculata L.), common mallow (Malva sylvestris (=s silvestris) L.), and Russian thistle (Salsola kali L. ssp. Ruthenica (Iljin) Soo) were planted and treated preemergence with test chemicals formulated in a non-phytotoxic solvent mixture which included a surfactant.
(§2) At the same time, plants selected from these weed species were treated with postemergence applications of some of the test chemicals formulated in the same manner. Plants ranged in height from 2 to 18 cm (1- to 4-leaf stage) for postemergence treatments. Treated plants and controls were maintained in a greenhouse for 12 to 14 days, after which time all species were compared to controls and visually evaluated. Plant response ratings, summarized in Table E, are based on a scale of 0 to 100 where 0 is no effect and 100 is complete control. A dash (-) response means no test result.

broadleaf signalgrass = assay: Test E pre-/postemergence herbicide test; format: in vivo, Brachiaria platyphylla
From the text: as §1, §2

common chickweed = assay: Test E pre-/postemergence herbicide test; format: in vivo, Stellaria media
From the text: as §1, §2

itchgrass = assay: Test E pre-/postemergence herbicide test; format: in vivo, Rottboellia cochinchinensis
From the text: as §1, §2

goosegrass = assay: Test E pre-/postemergence herbicide test; format: in vivo, Eleusine indica
From the text: as §1, §2

guineagrass = assay: Test E pre-/postemergence herbicide test; format: in vivo, Panicum maximum
From the text: as §1, §2

mustard = assay: Test E pre-/postemergence herbicide test; format: in vivo, Brassica nigra
From the text: as §1, §2

field bindweed = assay: Test E pre-/postemergence herbicide test; format: in vivo, Convolvulus arvensis
From the text: as §1, §2

green foxtail = assay: Test C postemergence herbicide test; format: in vivo, Setaria viridis
How it was run: (§3)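 Visual rating, 0 (no effect) to 100 (complete control), vs. controls at 12–14 d in greenhouse. Postemergence: 1–4-leaf plants, 2–18 cm. Paddy: flooded, barnyardgrass at 2-leaf stage.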

wheat = assay: Test C postemergence herbicide test; format: in vivo, Triticum aestivum
How it was run: as §3

blackgrass = assay: Test C postemergence herbicide test; format: in vivo, Alopecurus myosuroides
How it was run: as §3

purple nutsedge = assay: Test E pre-/postemergence herbicide test; format: in vivo, Cyperus rotundus
From the text: as §1, §2

kochia = assay: Test E pre-/postemergence herbicide test; format: in vivo, Kochia scoparia; settings: Preemergence
From the text: as §1, §2

[1] = Preemergence, 62 g ai/ha, scale 0 to 100
[2] = Preemergence, 125 g ai/ha, scale 0 to 100
[3] = Preemergence, 250 g ai/ha, scale 0 (no effect) to 100 (complete control)
[4] = Preemergence, 500 g ai/ha, scale 0 (no effect) to 100 (complete control)
[5] = Postemergence, 250 g ai/ha, scale 0 to 100, 0 no effect, 100 complete control
[6] = postemergence, 125 g ai/ha, scale 0 to 100
[7] = postemergence, 62 g ai/ha, scale 0 to 100
[8] = Postemergence, 500 g ai/ha, scale 0 to 100
[9] = Postemergence, 250 g ai/ha, scale 0 to 100

Structure (SMILES): CCc1nn(C(C)C)nc1C(=O)Nc1cccc(C(=O)N2CCCCC2)c1 [Compound 385]
- Plant response rating, Barnyardgrass (barnyardgrass; [1]): 20
- Plant response rating, Barnyardgrass (barnyardgrass; [2]): 50
- Plant response rating, Barnyardgrass (barnyardgrass; [3]): 70
- Plant response rating, Signalgrass (broadleaf signalgrass; [1]): 10
- Plant response rating, Signalgrass (broadleaf signalgrass; [2]): 20
- Plant response rating, Signalgrass (broadleaf signalgrass; [3]): 20
- Plant response rating, Chickweed (common chickweed; [1]): 20
- Plant response rating, Chickweed (common chickweed; [2]): 20
- Plant response rating, Chickweed (common chickweed; [3]): 60
- Plant response rating, Itchgrass (itchgrass; [1]): 20
- Plant response rating, Itchgrass (itchgrass; [2]): 20
- Plant response rating, Itchgrass (itchgrass; [3]): 20
- Plant response rating, Goosegrass (goosegrass; [1]): 20
- Plant response rating, Goosegrass (goosegrass; [2]): 20
- Plant response rating, Goosegrass (goosegrass; [3]): 50
- Plant response rating, Guineagrass (guineagrass; [2]): 60
- Plant response rating, Guineagrass (guineagrass; [3]): 100
- Plant response rating, Black Mustard (mustard; [1]): 0
- Plant response rating, Black Mustard (mustard; [3]): 30
- Plant response rating, Bindweed, Field (field bindweed; [1]): 10
- Plant response rating, Bindweed, Field (field bindweed; [2]): 10
- Plant response rating, Bindweed, Field (field bindweed; [3]): 20

Structure (SMILES): CCN1N=C(C(C)(C)C)CC1C(=O)Nc1cc(C(=O)N(C)C)ccc1F (stereo not drawn) [Compound 268, N-[5-[(dimethylamino)carbonyl]-2-fluorophenyl]-3-(1,1-dimethylethyl)-1-ethyl-4,5-dihydro-1H-pyrazole-5-carboxamide]
- Plant response rating, Barnyardgrass (barnyardgrass; [1]): 60
- Plant response rating, Barnyardgrass (barnyardgrass; [2]): 85
- Plant response rating, Barnyardgrass (barnyardgrass; [3]): 100
- Plant response rating, Barnyardgrass (barnyardgrass; [4]): 100
- Plant response rating, Signalgrass (broadleaf signalgrass; [1]): 20
- Plant response rating, Signalgrass (broadleaf signalgrass; [2]): 60
- Plant response rating, Signalgrass (broadleaf signalgrass; [3]): 80
- Plant response rating, Signalgrass (broadleaf signalgrass; [4]): 80
- Plant response rating, Foxtail, Green (green foxtail; [5]): 50
- Plant response rating, Foxtail, Green (green foxtail; [6]): 45
- Plant response rating, Foxtail, Green (green foxtail; [7]): 40
- Plant response rating, Wheat (wheat; [5]): 25
- Plant response rating, Wheat (wheat; [6]): 0
- Plant response rating, Wheat (wheat; [7]): 0
- Plant response rating, Itchgrass (itchgrass; [1]): 50
- Plant response rating, Itchgrass (itchgrass; [2]): 60
- Plant response rating, Itchgrass (itchgrass; [3]): 75
- Plant response rating, Itchgrass (itchgrass; [4]): 95
- Plant response rating, Goosegrass (goosegrass; [1]): 70
- Plant response rating, Goosegrass (goosegrass; [2]): 80
- Plant response rating, Goosegrass (goosegrass; [3]): 95
- Plant response rating, Goosegrass (goosegrass; [4]): 95
- Plant response rating, Guineagrass (guineagrass; [1]): 70
- Plant response rating, Guineagrass (guineagrass; [2]): 85
- Plant response rating, Guineagrass (guineagrass; [3]): 100
- Plant response rating, Guineagrass (guineagrass; [4]): 100
- Plant response rating, Blackgrass (blackgrass; [5]): 60
- Plant response rating, Blackgrass (blackgrass; [6]): 45
- Plant response rating, Blackgrass (blackgrass; postemergence, 31 g ai/ha, scale 0 to 100): 0
- Plant response rating, Blackgrass (blackgrass; [7]): 30
- Plant response rating, Nutsedge, Purple (purple nutsedge; [1]): 50
- Plant response rating, Nutsedge, Purple (purple nutsedge; [2]): 70
- Plant response rating, Nutsedge, Purple (purple nutsedge; [3]): 85
- Plant response rating, Nutsedge, Purple (purple nutsedge; [4]): 85
- Plant response rating, Black Mustard (mustard; [1]): 90
- Plant response rating, Black Mustard (mustard; [2]): 100
- Plant response rating, Black Mustard (mustard; [3]): 100
- Plant response rating, Black Mustard (mustard; [4]): 100
- Plant response rating, Bindweed, Field (field bindweed; [1]): 0
- Plant response rating, Bindweed, Field (field bindweed; [2]): 20
- Plant response rating, Bindweed, Field (field bindweed; [3]): 40
- Plant response rating, Bindweed, Field (field bindweed; [4]): 70

Structure (SMILES): CCNC(=O)c1ccc(F)c(NC(=O)c2cn(C(C)(C)C)nc2CC)c1 [Compound 193]
- Plant response rating, Barnyardgrass (barnyardgrass; [8]): 90
- Plant response rating, Barnyardgrass (barnyardgrass; [9]): 80
- Plant response rating, Barnyardgrass (barnyardgrass; [1]): 20
- Plant response rating, Barnyardgrass (barnyardgrass; [2]): 75
- Plant response rating, Barnyardgrass (barnyardgrass; [3]): 85
- Plant response rating, Barnyardgrass (barnyardgrass; [4]): 95
- Plant response rating, Barnyardgrass (barnyardgrass; [6]): 75
- Plant response rating, Barnyardgrass (barnyardgrass; [7]): 10
- Plant response rating, Signalgrass (broadleaf signalgrass; [8]): 80
- Plant response rating, Signalgrass (broadleaf signalgrass; [9]): 75
- Plant response rating, Signalgrass (broadleaf signalgrass; [1]): 10
- Plant response rating, Signalgrass (broadleaf signalgrass; [2]): 60
- Plant response rating, Signalgrass (broadleaf signalgrass; [3]): 70
- Plant response rating, Signalgrass (broadleaf signalgrass; [4]): 95
- Plant response rating, Signalgrass (broadleaf signalgrass; [6]): 50
- Plant response rating, Signalgrass (broadleaf signalgrass; [7]): 10
- Plant response rating, Chickweed (common chickweed; [8]): 100
- Plant response rating, Chickweed (common chickweed; [9]): 95
- Plant response rating, Chickweed (common chickweed; [1]): 80
- Plant response rating, Chickweed (common chickweed; [2]): 100
- Plant response rating, Chickweed (common chickweed; [3]): 100
- Plant response rating, Chickweed (common chickweed; [4]): 100
- Plant response rating, Chickweed (common chickweed; [7]): 40
- Plant response rating, Itchgrass (itchgrass; [8]): 75
- Plant response rating, Itchgrass (itchgrass; [9]): 60
- Plant response rating, Itchgrass (itchgrass; [1]): 20
- Plant response rating, Itchgrass (itchgrass; [2]): 70
- Plant response rating, Itchgrass (itchgrass; [3]): 80
- Plant response rating, Itchgrass (itchgrass; [4]): 100
- Plant response rating, Itchgrass (itchgrass; [6]): 60
- Plant response rating, Itchgrass (itchgrass; [7]): 30
- Plant response rating, Goosegrass (goosegrass; [8]): 85
- Plant response rating, Goosegrass (goosegrass; [9]): 80
- Plant response rating, Goosegrass (goosegrass; [1]): 30
- Plant response rating, Goosegrass (goosegrass; [2]): 80
- Plant response rating, Goosegrass (goosegrass; [3]): 90
- Plant response rating, Goosegrass (goosegrass; [4]): 95
- Plant response rating, Goosegrass (goosegrass; [6]): 70
- Plant response rating, Goosegrass (goosegrass; [7]): 20
- Plant response rating, Guineagrass (guineagrass; [8]): 100
- Plant response rating, Guineagrass (guineagrass; [9]): 70
- Plant response rating, Guineagrass (guineagrass; [1]): 60
- Plant response rating, Guineagrass (guineagrass; [2]): 70
- Plant response rating, Guineagrass (guineagrass; [3]): 100
- Plant response rating, Guineagrass (guineagrass; [4]): 100
- Plant response rating, Guineagrass (guineagrass; [6]): 60
- Plant response rating, Guineagrass (guineagrass; [7]): 20
- Plant response rating, Kochia (kochia; 62 g ai/ha, scale 0 to 100): 100
- Plant response rating, Kochia (kochia; 125 g ai/ha, scale 0 to 100): 100
- Plant response rating, Kochia (kochia; 250 g ai/ha, scale 0 (no effect) to 100 (complete control)): 100
- Plant response rating, Kochia (kochia; 500 g ai/ha, scale 0 (no effect) to 100 (complete control)): 100
- Plant response rating, Nutsedge, Purple (purple nutsedge; [8]): 70
- Plant response rating, Nutsedge, Purple (purple nutsedge; [9]): 40
- Plant response rating, Nutsedge, Purple (purple nutsedge; [1]): 0
- Plant response rating, Nutsedge, Purple (purple nutsedge; [2]): 30
- Plant response rating, Nutsedge, Purple (purple nutsedge; [3]): 50
- Plant response rating, Nutsedge, Purple (purple nutsedge; [4]): 80
- Plant response rating, Nutsedge, Purple (purple nutsedge; [6]): 20
- Plant response rating, Nutsedge, Purple (purple nutsedge; [7]): 0
- Plant response rating, Black Mustard (mustard; [8]): 100
- Plant response rating, Black Mustard (mustard; [9]): 95
- Plant response rating, Black Mustard (mustard; [1]): 80
- Plant response rating, Black Mustard (mustard; [2]): 100
- Plant response rating, Black Mustard (mustard; [3]): 100
- Plant response rating, Black Mustard (mustard; [4]): 100
- Plant response rating, Black Mustard (mustard; [6]): 95
- Plant response rating, Black Mustard (mustard; [7]): 60
- Plant response rating, Bindweed, Field (field bindweed; [8]): 50
- Plant response rating, Bindweed, Field (field bindweed; [9]): 50
- Plant response rating, Bindweed, Field (field bindweed; [1]): 50
- Plant response rating, Bindweed, Field (field bindweed; [2]): 50
- Plant response rating, Bindweed, Field (field bindweed; [3]): 80
- Plant response rating, Bindweed, Field (field bindweed; [4]): 85
- Plant response rating, Bindweed, Field (field bindweed; [7]): 20

Structure (SMILES): CCc1nn(C(C)C)nc1C(=O)Nc1cccc(C(=O)N(C)CC)c1 [Compound 386]
- Plant response rating, Barnyardgrass (barnyardgrass; [2]): 80
- Plant response rating, Barnyardgrass (barnyardgrass; [3]): 100
- Plant response rating, Signalgrass (broadleaf signalgrass; [2]): 30
- Plant response rating, Signalgrass (broadleaf signalgrass; [3]): 85
- Plant response rating, Chickweed (common chickweed; [2]): 95
- Plant response rating, Chickweed (common chickweed; [3]): 95
- Plant response rating, Itchgrass (itchgrass; [2]): 70
- Plant response rating, Itchgrass (itchgrass; [3]): 70
- Plant response rating, Goosegrass (goosegrass; [2]): 80
- Plant response rating, Goosegrass (goosegrass; [3]): 95
- Plant response rating, Guineagrass (guineagrass; [2]): 80
- Plant response rating, Guineagrass (guineagrass; [3]): 100
- Plant response rating, Black Mustard (mustard; [3]): 70
- Plant response rating, Bindweed, Field (field bindweed; [2]): 20
- Plant response rating, Bindweed, Field (field bindweed; [3]): 60
